We go through two molecules from patent US4680283A, “Analogs of substance P and eledoisin” (Merck & Co., Inc., priority 1986, dated 1987).

The target of experiment [1] is T1, 125I-BH-eledoisin binding sites in rat brain cortex membranes (Rattus norvegicus, UniProt P16177).
T1 construct: from tissue; host or cells: rat brain cortex membranes
T1 sequence (P16177 1-452): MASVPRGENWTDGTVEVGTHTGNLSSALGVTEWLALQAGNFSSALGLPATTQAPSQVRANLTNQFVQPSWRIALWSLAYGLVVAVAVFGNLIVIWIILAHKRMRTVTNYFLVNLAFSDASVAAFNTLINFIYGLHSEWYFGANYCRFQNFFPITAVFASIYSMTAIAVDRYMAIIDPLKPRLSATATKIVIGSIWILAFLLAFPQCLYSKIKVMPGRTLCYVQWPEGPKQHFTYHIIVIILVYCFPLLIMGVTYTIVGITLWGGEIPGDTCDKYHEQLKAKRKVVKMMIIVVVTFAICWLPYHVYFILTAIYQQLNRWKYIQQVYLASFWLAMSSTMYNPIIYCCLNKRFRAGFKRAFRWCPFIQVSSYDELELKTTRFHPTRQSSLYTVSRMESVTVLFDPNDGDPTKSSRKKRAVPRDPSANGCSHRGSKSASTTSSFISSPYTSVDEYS
The experiment can be described thus: eledoisin binding assay (competition for 125I-BH-eledoisin binding sites). The following applies: peptides dissolved in DMSO. The protocol: (§1) Representative compounds of this invention were tested in the substance P (SP) and eledoisin binding assays. The peptides were dissolved in DMSO and tested for their abilities to compete for ^125 I-BH-SP and ^125 I-BH-eledoison binding sites in rat brain cortex membranes (Cascieri and Liang, J. Biol. Chem., 258, 5158 (1983); Life Sciences, 35, 179 (1984)).
(§2) The following table summarizes the IC50 data obtained in both assay systems as well as showing the IC50 ratio for each peptide in the SP and eledoisin binding assays.

For experiment [2], the target named is T2, 125I-BH-SP binding sites in rat brain cortex membranes (Rattus norvegicus, UniProt P14600).
T2 construct: from tissue; host or cells: rat brain cortex membranes
Nature of the experiment: substance P (SP) binding assay (competition for 125I-BH-SP binding sites). To be noted: peptides dissolved in DMSO. The protocol:
as §1, §2

T2 sequence (P14600 whole entry): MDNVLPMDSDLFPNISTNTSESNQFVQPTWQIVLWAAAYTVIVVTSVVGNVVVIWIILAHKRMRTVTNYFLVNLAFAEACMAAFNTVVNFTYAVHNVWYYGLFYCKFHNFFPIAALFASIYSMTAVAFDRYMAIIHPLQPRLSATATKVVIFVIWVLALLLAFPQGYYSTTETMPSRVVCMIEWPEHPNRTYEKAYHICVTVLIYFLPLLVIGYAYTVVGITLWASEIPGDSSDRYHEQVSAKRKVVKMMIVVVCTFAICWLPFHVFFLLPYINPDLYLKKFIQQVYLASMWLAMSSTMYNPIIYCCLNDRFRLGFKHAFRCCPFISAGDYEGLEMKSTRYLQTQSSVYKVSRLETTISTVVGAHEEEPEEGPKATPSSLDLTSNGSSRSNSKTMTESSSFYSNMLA

As for `CSCC[C@H](NC(=O)[C@H](CC(C)C)N1CC[C@@H](NC(=O)[C@H](Cc2ccccc2)NC(=O)[C@H](Cc2ccccc2)NC(=O)[C@@H]2CCC(=O)N2)C1=O)C(N)=O` [L-363,851, Pyroglutamyl-phenylalanyl-phenylalanyl-[(R)-3-amino-2-oxo-1-pyrrolidine-(S)-4-methyl-2-pentanoyl]-methionine amide], the IC50 (commonly the midpoint of a concentration-inhibition curve) in experiment [1] turned out to be 0.014 µM; in experiment [2], 13 µM.

`CSCC[C@H](NC(=O)[C@H](CC(C)C)N1CC[C@H](NC(=O)[C@H](Cc2ccccc2)NC(=O)[C@H](Cc2ccccc2)NC(=O)[C@@H]2CCC(=O)N2)C1=O)C(N)=O` [L-363,232]: the figures for the IC50 in experiment [1] and in experiment [2] were 32 µM and 60 µM, respectively.
